Data taken from patent US20050245508A1, “Treatment of malignant gliomas with TGF-beta inhibitors” (SCIOS, Inc., priority 2003, published 2005).

What was measured:
glioma cells = assay: Viability of glioma cells in response to serum deprivation; format: cell-based; conditions: data not shown
Method: The glioma cells and CCL64 cells were maintained in DMEM supplemented with 2 mM L-glutamine (Gibco Life Technologies, Paisley, UK), 10% FCS (Biochrom KG, Berlin, Germany) and penicillin (100 IU/ml)/streptomycin (100 μg/ml) (Gibco). Growth and viability of the glioma cells was examined by crystal violet, LDH release (Roche, Mannheim, Germany) and trypan blue dye exclusion assays. To assess clonogenicity, 500 SMA-560 cells were seeded into 6 well plates (9.4 cm^2). After formation of visible cell formations, colonies>20 cells were counted.

[1] = system: SMA-560 intracranial experimental glioma; assay: Syngeneic SMA-560 intracranial glioma in VM/Dk mice; format: in vivo
Method: FIG. 4. […] A. VM/Dk mice received an intracranial injection of 5×10^3 SMA-560 cells. […] B. The animals were treated as in A, but were sacrificed on day 10 to obtain splenocytes. IFN-γ release at 24 h was assessed by Elispot. Data are expressed as cytokine-producing cells per 10^6 effector cells. C. The splenocytes were stimulated with IL-2 for 10 days to generate LAK cells.
VM/Dk mice were purchased from the TSE Research Center (Berkshire, UK). Mice of 6-12 weeks of age were used in all experiments. The experiments were performed according to the German animal protection law. Groups of 7-8 mice were anesthesized before all intracranial procedures and placed in a stereotaxic fixation device (Stoelting, Wood Dale, Ill.). A burr hole was drilled in the skull 2 mm lateral to the bregma. The needle of a Hamilton syringe (Hamilton, Darmstadt, Germany) was introduced to a depth of 3 mm. […] The mice were observed daily and, in the survival experiments, sacrified when developing neurological symptoms, or sacrificed as indicated in the other experiments.

With `Fc1ccc(Cl)cc1-c1nc(Nc2ccncc2)c2nccnc2n1` [Compound No. 79] the “viability in response to serum deprivation” value (glioma cells) was “did not modulate”, the “development of neurological symptoms” value ([1]; 1 mg/ml in drinking water from day 3, data not shown) was “delayed” and the “survival rate at 30 days” value ([1]; 1 mg/ml in drinking water from day 3, control 0%) was 29%. For the same compound, the median survival ([1]; 1 mg/ml in drinking water from day 3, vehicle 18) was 23 days, the mean survival ([1]; 1 mg/ml in drinking water from day 3, vehicle 18.6±2.1, p=0.004) was 25.1 ± 6.5 days and the dose-limiting toxicity ([1]; drinking water 1 mg/ml) was “No dose-limiting toxicity has been reached”.
